Key:
[1] = system: planktonic oral bacterial species (S. sobrinus, S. gordonii, A. actinomycetemcomitans, A. viscosus, mixed cultures); test: Growth inhibition, summary statements over the single, co- and mixed cultures tested; format: cell-based, oral bacteria
Procedure: (§1) Single species of Streptococcus gordonii (S. gordonii, S.g) strain V288 (ATCC #35105), Streptococcus sobrinus (S. sobrinus, S.$) strain SL1[CCM 6070, CNCTC 9/89] (ATCC #33478), or Aggregatibacter actinomycetemcomitans were analyzed. Also, a mixed culture containing Actinomyces viscosus (A. viscosus, A.v) strain (ATCC, #43146), Lactobacillus casei (L. casei, L.c) strain (ATCC #334), Streptococcus oralis (S. oralis, S. o) strain (ATCC #35037), Fusobacterium nucleatum (F. nucleatum, F. n) strain (ATCC #10953), and Veilonella parvula (V. parvula, V. p) strain (ATCC #17745) was also analyzed for growth inhibition/toxicity activity. Bacteria were cultured overnight in approximately 20 ml of BHI broth (BD, cat #237500) or maintained in a specialized complex modified BHI II medium in a continuous culture chemostat at 37° C. respectively. The following day, the OD610 were determined and solutions diluted to an OD610 of 0.2 or 0.1 respectively for the assay.
(§2) Triclosan (positive control) was prepared as a 10% stock in 100% EtOH and 3 fold serial dilutions were performed in 100% EtOH. An appropriate amount of the diluted samples was then transferred into a 96 well clear plate such that the resulting final concentration of the test samples ranged from either a 2 mM or 4 mM (highest concentration) to 0.0078 mM or 0.0156 mM (lowest concentration respectively) in 2% DMSO in 100 μl media per well. Triclosan (TCN) ranged from 0.01% to 1.67e-6% in 1% EtOH. For Zinc acetate, in order to mimic the 2:1 molar ratio (ligand:Zinc) in the Naringin:Zinc complex, the final concentration ranged from 0.7 mM to 0.0027 mM for samples with 2 mM as the highest concentration and 1.33 mM to […] for samples with 4 mM as the highest concentration in 2% DMSO. Next, 100 μl of bacterial culture at OD610 0.2 were introduced to the wells with the test samples. The wells were thoroughly mixed and incubated at 37° C. overnight. The plates were read using an Envision plate reader (PerkinElmer, Waltham, Mass.) at 610 nm.
(§3) The IC50 for the complex, Product 5, was determined for Streptococcus gordonii (S. gordonii), Streptococcus sobrinus (S. sobrinus), Aggregatibacter actinomycetemcomitans (A. actinomycetemcomitans), and also for the mixed bacterial culture. […] Triclosan (TCN) was included as a positive control for bacterial inhibition.
(§4) Further characterization was performed on planktonic oral microbes; Streptococcus sobrinus (Cariongenic—strain-SL1[CCM 6070, CNCTC 9/89] (ATCC cat. #33478), Streptococcus gordonii (Arginolytic—strain V288 (ATCC cat. #35105), Actinomyces viscosus) as well late colonizer (Gram −), pathogenic Aggregatibacter actinomycetemcomitans. All microbes were grown in their respective culture media: Streptococcus sobrinus and Streptococcus gordonii in BHI broth (BD, cat #237500), Aggregatibacter actinomycetemcomitans in BHI broth supplemented with 0.5% Yeast Extract (BD, cat #210941) and Actinomyces viscosus in Trypticase Soy Broth (BD, cat #211768) supplemented with 0.5% Yeast Extract (BD, cat #210941). Bacteria were cultured overnight in 37° C., 5% CO2 in approximately 20 ml of the appropriate culture broth. The following day, the OD610 was determined and solutions were diluted to 0.2 for the assay.
(§5) Triclosan (positive control) was prepared as a 10% stock in 100% EtOH and 3 fold serial dilutions were done in 100% EtOH. […] For Naringin+Zinc combination, while the highest total overall concentration was 2 mM, the exact concentration was Naringin (1.3 mM) and Zinc Acetate (0.7 mM) due to the compositions 2:1 molar ratio. For Zinc Acetate, in order to mimic the 2:1 ratio (ligand:Zinc) composition as in the complex, the final concentration ranged from 0.7 mM to 0.0027 mM in 2% DMSO.
(§6) A 100 μl aliquot of bacterial culture at OD610 0.2 were introduced to the wells with the test samples. The wells were thoroughly mixed and plates incubated overnight in a 37° C. incubator with or without 5% CO2 depending upon the bacterial species.

[2] = Growth inhibition (OD610), mixed chemostat culture; format: cell-based, A. viscosus, L. casei, S. oralis, F. nucleatum, V. parvula
Procedure: as §1, §2, §3
(§7) Antimicrobial characterization was also performed on mixed culture solutions having at least five microbial species present. A mixed culture containing Actinomyces viscosus (A. viscosus, A.v) (ATCC, #43146), Lactobacillus casei (L. casei, L.c) (ATCC #334), Streptococcus oralis (S. oralis, S.o) (ATCC #35037), Fusobacterium nucleatum (F. nucleatum, F.n) (ATCC #10953) and Veilonella parvula (V. parvula, V.p) (ATCC #17745) was maintained in a specialized complex medium (Modified BHI II Medium) in a continuous culture chemostat at 37° C. Approximately 10 ml of the culture was removed and the OD610 was determined. The assay was performed using cultures at two concentrations; 0.03 and 0.1 at OD610. […] Triclosan (positive control) was prepared as a 10% stock in 100% EtOH and 3 fold serial dilutions were performed in 100% EtOH. […] For Zinc Acetate, in order to mimic the 2:1 ratio (ligand:Zinc) composition as in the complex, the final concentration range from 0.7 mM to 0.0027 mM in 2% DMSO was used instead.
(§8) A 100 μl of bacterial culture at chosen OD610 (0.03 or 0.1) was introduced into the wells with the test samples. The wells were thoroughly mixed and plates incubated overnight in a 37° C. incubator with or without 5% CO2. After approximately 12-13 hours of treatment, the plate was read using Envision plate reader (Serial #1040984), absorbance at 610 nm. The % inhibition relative to control was determined as described for previously described antimicrobial protocols, supra.

[3] = system: mixed culture containing Actinomyces viscosus, Lactobacillus casei, Streptococcus oralis, Fusobacterium nucleatum and Veilonella parvula; test: Growth inhibition (OD610), mixed chemostat culture; format: cell-based, A. viscosus, L. casei, S. oralis, F. nucleatum, V. parvula; conditions: mixed species cultures; 1% EtOH; data not shown
Procedure: as §1, §2, §3, §7, §8

[4] = system: Streptococcus gordonii; test: Growth inhibition (OD610), single culture; format: cell-based; conditions: Streptococcus gordonii
Procedure: as §1, §2, §3, §4, §5, §6

[5] = system: Streptococcus sobrinus; test: Growth inhibition (OD610), single culture; format: cell-based; conditions: Streptococcus sobrinus
Procedure: as §1, §2, §3, §4, §5, §6

[6] = system: Aggregatibacter actinomycetemcomitans; test: Growth inhibition (OD610), single culture; format: cell-based; conditions: Aggregatibacter actinomycetemcomitans
Procedure: as §1, §2, §3, §4, §5, §6

SMILES: Oc1cc(Cl)ccc1Oc1ccc(Cl)cc1Cl [TCN, Triclosan]
- IC50 range over cultures tested, corresponding ppm ([1]; S. sobrinus, S. gordonii, A. actinomycetemcomitans and mixed chemostat cultures): 0.18-2.2 ppm
- IC50 ([1]; read-out: concentration that inhibited 50% of the bacterial growth (IC50), range over cultures tested): 0.61 to 7.6 µM
- IC50 of positive control, range in ppm ([1]; same species of bacteria cultures (single and co-cultures), 1% EtOH): 1-2.7 ppm
- IC50 ([2]; Mixed Species (aerobic)): 7.6 µM
- IC50 ([2]; Mixed Species (anaerobic)): 4.8 µM
- IC50 of positive control, range in ppm [3]: 1.4-2.2 ppm
- IC50 [4]: 6 ± 0.85 µM
- IC50 [5]: 6 ± 1.7 µM
- IC50 [6]: 0.61 ± 0.46 µM

Reference: patent US10548829B2, “Oral care compositions and methods of use” (priority 2016, dated 2020)
